{"source": "paper PMC4418665", "about": "“Cyclization of the Urokinase Receptor-Derived Ser-Arg-Ser-Arg-Tyr Peptide Generates a Potent Inhibitor of Trans-Endothelial Migration of Monocytes” (PLoS ONE, 2015)", "key": {"[1]": {"tested_on": "THP-1 cells", "format": "cell-based, human", "conditions": "10 nM peptide, 90 minutes, Boyden chamber", "method": "The ability of [SRSRY] peptide to affect THP-1 cell migration was analyzed in Boyden chambers using 10 nM fMLF or 10 nM SRSRY as chemoattractants. […] Inhibitory effect of [SRSRY] is dose-dependent, it starts in the high fM range, it seems to level off in the μM range and reaches an overall 50% reduction at 10 pM (Fig 4B). […] The mechanisms by which monocytes move when subjected to a chemoattractant gradient, involve changes in cytoskeletal organization, which provide both protrusive and contractile forces necessary for cell migration. To gain some insights into the cellular effects exerted by peptide [SRSRY], PMA-differentiated THP-1 cells were grown adherent onto a glass slide, exposed to diluents (CTL), 10 nM fMLF gradient plus/minus 10 nM [SRSRY] or 10 nM [RSSYR] in a DUNN chamber for 6 hours as described, and then stained with rhodamine-phalloidin. A total of 100 cells/sample that translocated to the area corresponding to the ring separating the inner and outer chambers were counted and their cytoskeletal organization examined with a fluorescence-inverted microscope. […] Conversely, the addition of peptide [SRSRY] to the fMLF gradient reduced cell elongation and alignment with the appearance of F-actin linear distribution along the plasma membranes in the 60% of cell population (Fig 4C). In order to verify whether the inhibitory effect of [SRSRY] also occurs on primary monocytes and/or macrophages, human monocytes and macrophages were subjected to cell migration assays in Boyden and DUNN chambers, respectively. […] Unlike [RSSYR], 10 nM [SRSRY] reduced both fMLF- and SRSRY- directed monocyte migration by 50% and 49%, respectively. Next, primary macrophages were subjected to cell migration assay in DUNN chamber as above described. After 6 hours incubation, a total of 100 cells/sample that translocated to the area corresponding to the ring separating the inner and outer chambers were counted. Macrophage exposure to 10 nM fMLF elicited a considerable cell migration, reaching 230% of the basal cell migration (CTL), that was unchanged by 10 nM [[…]). […] These findings indicate that unlike linear SRSRY, the cyclic form of the chemotactic sequence of uPAR inhibits monocyte motility and prevents cytoskeletal re-organization occurring during migration of macrophages. {[…]] inhibits migration of monocytes and macrophages in a dose-dependent manner causing a marked inhibition of fMLF-dependent cytoskeletal re-organization. A. THP-1 cells (1x10^5 cells/well) were allowed to migrate for 90 minutes at 37°C, 5% CO2 in Boyden chambers toward 10 nM fMLF, or 10 nM SRSRY in the presence of diluents (None), 10 nM [RSSYR] or 10 nM [SRSRY]. […] Data are expressed as the means ± SD of three independent experiments, performed in duplicate. *Statistical significance against None with p<0.001. B. THP-1 and PMA-stimulated THP-1 cell migration toward 10 nM fMLF plus increasing concentrations of [SRSRY] in Boyden chambers. The extent of cell migration was expressed as a percentage of the net fMLF-dependent cell migration, considered as 100%. Data are expressed as the means ± SD of three independent experiments, performed in duplicate. C. Representative images of PMA-stimulated THP-1 cells allowed to migrate in a DUNN chamber toward diluents (CTL), or a fMLF chemotactic gradient, in the absence (None) or presence of 10 nM [SRSRY] or [RSSYR] peptides and stained with rhodamine-phalloidin. Scale bar: 10 μm. Original magnifications: 630x. D-E. Primary monocytes (1x10^5 cells/well) were allowed to migrate for 90 minutes at 37°C, 5% CO2 in Boyden chambers toward 10 nM fMLF (D), or 10 nM […]) in the presence of diluents (None), 10 nM [RSSYR] or 10 nM [SRSRY]. […] Data are expressed as the means ± SD of three independent experiments, performed in duplicate. *Statistical significance against None with p<0.001; **Statistical significance against None with p<0.0001. […]"}, "[2]": {"tested_on": "primary macrophages", "assay": "Primary macrophage migration in DUNN chamber", "format": "cell-based, human", "conditions": "10 nM peptide added to 10 nM fMLF gradient, 6 hours", "method": "The ability of [SRSRY] peptide to affect THP-1 cell migration was analyzed in Boyden chambers using 10 nM fMLF or 10 nM SRSRY as chemoattractants. […] Inhibitory effect of [SRSRY] is dose-dependent, it starts in the high fM range, it seems to level off in the μM range and reaches an overall 50% reduction at 10 pM (Fig 4B). […] The mechanisms by which monocytes move when subjected to a chemoattractant gradient, involve changes in cytoskeletal organization, which provide both protrusive and contractile forces necessary for cell migration. […] A total of 100 cells/sample that translocated to the area corresponding to the ring separating the inner and outer chambers were counted and their cytoskeletal organization examined with a fluorescence-inverted microscope. […] After 6 hours incubation, a total of 100 cells/sample that translocated to the area corresponding to the ring separating the inner and outer chambers were counted. […] Data are expressed as the means ± SD of three independent experiments, performed in duplicate. *Statistical significance against None with p<0.001. […] The extent of cell migration was expressed as a percentage of the net fMLF-dependent cell migration, considered as 100%. Data are expressed as the means ± SD of three independent experiments, performed in duplicate. […]"}, "[3]": {"biological_target": "T1, FPR1 (Homo sapiens, UniProt P21462)", "T1 sequence (P21462 1-350)": "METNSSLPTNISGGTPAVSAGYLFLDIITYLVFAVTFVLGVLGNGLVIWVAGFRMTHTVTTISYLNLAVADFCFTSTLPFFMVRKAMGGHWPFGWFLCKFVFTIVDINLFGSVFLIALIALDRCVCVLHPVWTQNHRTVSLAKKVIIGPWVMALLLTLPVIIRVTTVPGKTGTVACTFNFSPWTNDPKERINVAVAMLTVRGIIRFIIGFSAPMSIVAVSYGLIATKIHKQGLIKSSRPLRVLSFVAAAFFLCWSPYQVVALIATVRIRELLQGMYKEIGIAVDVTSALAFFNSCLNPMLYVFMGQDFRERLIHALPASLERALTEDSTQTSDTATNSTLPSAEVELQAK", "assay": "Agonist-induced FPR1 internalization at 37°C, fluorescence microscopy, THP-1 cells", "format": "cell-based", "set-up": "host or cells: THP-1 human monocytic leukemia cells", "conditions": "excess (100 nM) unlabelled peptide 30 min at 37°C, then 10 nM FITC-fMLF 30 min at 37°C", "method": "Once documented that both SRSRY and [SRSRY] peptides compete with fMLF for binding to FPR1, we investigated the effect of [SRSRY] on the motility of monocytes. Preliminarily, we assessed whether [SRSRY] is a ligand of FPR1 on monocyte cell surface. […] (Fig 3A). When binding experiments were performed at 37°C, FPR1 appeared mainly localized within the cytoplasm, adjacent but outside the nucleus of THP-1 cells.\nFig 3 The peptide [SRSRY] binds to FPR1 on THP-1 cell surface. A. THP-1 cells (1.5 x10^6 cells/sample) were pre-incubated with diluents (None), 100 nM fMLF, 100 nM SRSRY or 100 nM [SRSRY] peptides for 60 minutes at 4°C, then exposed to 10 nM N-formyl-Nle-Leu-Phe-Nle-Tyr-Lys-fluorescein (FITC-fMLF) for additional 60 minutes at 4°C. Fluorimetric measurement of cell-associated fluorescence was assed using 485 nm excitation and 535 nm emission filters. Data are expressed as a percentage of the fluorescence associated to THP-1 cells exposed to FITC-fMLF alone (None = 100%) and represent a mean ± SD from triplicates. *Statistical significance (t-test) against None with p<0.001. B. THP-1 cells incubated with diluents (None), 100 nM fMLF, 100 nM SRSRY or 100 nM [SRSRY] peptides for 30 minutes at 37°C and exposed to 10 nM FITC-fMLF for additional 30 minutes at 37°C. Scale bar: 5 μm. Original magnifications: 630x. […]"}}, "note": "Peptide text beside a SMILES is read from it.", "data": [{"smiles": "N=C(N)NCCC[C@@H]1NC(=O)[C@H](CCCNC(=N)N)NC(=O)[C@H](Cc2ccc(O)cc2)NC(=O)[C@H](CO)NC(=O)[C@H](CO)NC1=O", "note": "[[RSSYR], [Arg-Ser-Ser-Tyr-Arg]] (cyclo(RRSSY))", "values": [{"measurement": "reduction of THP-1 monocyte migration toward 10 nM SRSRY", "setting": "[1]", "value": "did not exert any effect"}, {"measurement": "reduction of THP-1 monocyte migration toward 10 nM fMLF", "setting": "[1]", "value": "did not exert any effect"}, {"measurement": "effect on fMLF-directed migration of primary macrophages", "setting": "[2]", "value": "unchanged"}, {"measurement": "internalization of fluorescent agonist in THP-1 cells", "setting": "[3]", "value": "did not exert such effect"}]}]}
